Measured values: ChEMBL document CHEMBL1156305 (Bioorg Med Chem Lett, 2010)
Activity calls are given as the source filed them. No cut-off for these calls is given here.

Experiments:
[1] = target: T1, 5-hydroxytryptamine receptor 2C (Homo sapiens) (UniProt P28335); assay: Agonist activity at 5HT2C receptor relative to control; format: functional; parameters: concentration or dose not given beside the values
T1 sequence (whole entry): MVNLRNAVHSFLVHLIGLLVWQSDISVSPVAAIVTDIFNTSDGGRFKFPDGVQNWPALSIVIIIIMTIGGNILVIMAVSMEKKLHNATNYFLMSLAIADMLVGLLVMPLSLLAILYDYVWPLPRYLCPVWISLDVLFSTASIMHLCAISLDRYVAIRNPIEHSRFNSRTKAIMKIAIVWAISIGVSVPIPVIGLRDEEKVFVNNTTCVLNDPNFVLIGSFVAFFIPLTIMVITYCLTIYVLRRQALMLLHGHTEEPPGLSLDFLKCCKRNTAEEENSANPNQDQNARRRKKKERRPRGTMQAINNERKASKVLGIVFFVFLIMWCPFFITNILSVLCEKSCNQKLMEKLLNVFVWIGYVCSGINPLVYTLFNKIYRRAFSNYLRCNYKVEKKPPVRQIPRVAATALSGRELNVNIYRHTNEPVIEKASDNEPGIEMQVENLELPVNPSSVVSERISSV

[2] = target: T2, 5-hydroxytryptamine receptor 2A (Homo sapiens, UniProt P28223); assay: Binding affinity to 5HT2A receptor
T2 sequence (P28223 whole entry): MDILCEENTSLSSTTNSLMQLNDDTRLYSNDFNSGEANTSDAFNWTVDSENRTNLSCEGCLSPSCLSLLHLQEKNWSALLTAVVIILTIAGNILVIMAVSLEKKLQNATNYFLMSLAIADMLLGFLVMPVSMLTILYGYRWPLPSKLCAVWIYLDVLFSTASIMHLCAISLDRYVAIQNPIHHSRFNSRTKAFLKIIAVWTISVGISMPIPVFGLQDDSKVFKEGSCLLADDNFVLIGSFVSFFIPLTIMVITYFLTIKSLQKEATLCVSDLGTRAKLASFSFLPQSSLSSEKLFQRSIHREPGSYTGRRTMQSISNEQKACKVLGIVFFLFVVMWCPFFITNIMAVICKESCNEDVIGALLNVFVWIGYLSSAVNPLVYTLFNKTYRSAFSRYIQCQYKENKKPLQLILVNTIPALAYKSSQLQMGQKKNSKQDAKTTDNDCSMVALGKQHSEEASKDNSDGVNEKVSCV

[3] = target: T3, 5-hydroxytryptamine receptor 2B (Homo sapiens, UniProt P41595); assay: Agonist activity at 5HT2B receptor; format: functional
T3 sequence (P41595 whole entry): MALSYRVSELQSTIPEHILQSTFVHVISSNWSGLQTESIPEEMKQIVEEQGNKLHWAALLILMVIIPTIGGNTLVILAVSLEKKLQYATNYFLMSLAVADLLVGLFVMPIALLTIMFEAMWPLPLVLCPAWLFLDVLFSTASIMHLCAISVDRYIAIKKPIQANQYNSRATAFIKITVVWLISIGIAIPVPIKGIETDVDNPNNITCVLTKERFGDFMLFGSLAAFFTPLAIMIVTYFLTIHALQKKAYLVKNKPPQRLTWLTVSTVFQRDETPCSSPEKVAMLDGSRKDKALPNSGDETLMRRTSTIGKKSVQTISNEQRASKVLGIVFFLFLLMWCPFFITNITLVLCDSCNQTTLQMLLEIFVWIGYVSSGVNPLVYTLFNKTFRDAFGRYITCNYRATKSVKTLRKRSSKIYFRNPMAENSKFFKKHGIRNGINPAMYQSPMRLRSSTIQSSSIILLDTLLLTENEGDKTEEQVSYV

[4] = target: T2, 5-hydroxytryptamine receptor 2A; assay: Agonist activity at 5HT2A receptor; format: functional
[5] = target: T2, 5-hydroxytryptamine receptor 2A; assay: Agonist activity at 5HT2A receptor relative to control; format: functional
[6] = organism: Rattus norvegicus; assay: Ex vivo agonist activity at 5HT2B receptor in rat stomach fundus; format: functional, organism-based
[7] = organism: Macaca mulatta; assay: Activity at MAPK in monkey heart valve […] cells
[8] = organism: Rattus norvegicus; assay: Effect on 5HT2A receptor-mediated head twitches in rat; format: functional, organism-based
[9] = tested on: Rattus norvegicus; assay: Inhibition of spontaneous nocturnal food intake in po dosed Sprague-Dawley rat measured up to 840 mins; format: functional, organism-based
[10] = tested on: Rattus norvegicus; assay: Inhibition of spontaneous nocturnal food intake in po dosed Sprague-Dawley rat measured up to 25 hrs; format: functional, organism-based
[11] = tested on: Plasma; assay: Fraction unbound in Sprague-Dawley rat plasma; format: ADME, cell-free
[12] = Ratio of drug level in RBC to plasma in Sprague-Dawley rat; format: ADME; details: in vivo
[13] = Ratio of total drug level in brain to plasma in Sprague-Dawley rat; format: ADME, cell-free; details: brain and plasma
[14] = Ratio of free drug level in brain to plasma in Sprague-Dawley rat; format: ADME, cell-free; details: brain and plasma
[15] = Bioavailability in rat; format: ADME, organism-based; details: in vivo
[16] = Bioavailability in dog; format: ADME, organism-based, Canis lupus familiaris; details: in vivo
[17] = Half life in human liver microsomes; format: ADME, Microsome
[18] = Half life in human hepatocytes; format: ADME, cell-based, Liver, Hepatocyte
[19] = target: T4, 5-hydroxytryptamine receptor 2C (Homo sapiens, UniProt P28335); assay: Binding affinity to 5HT2C receptor
T4 sequence (P28335 whole entry): T1 sequence (whole entry)

[20] = target: T3, 5-hydroxytryptamine receptor 2B; assay: Binding affinity to 5HT2B receptor
[21] = Selectivity ratio of Ki for 5HT2B receptor to Ki for 5HT2C receptor
[22] = target: T4, 5-hydroxytryptamine receptor 2C; assay: Agonist activity at 5HT2C receptor; format: functional

Activity [1] [%]	Ki [19] [nM]	Ki ([20]; read-out: Ki) [nM]	EC50 [22] [nM]	SMILES	further results
95	0.9	3940	2.3	COc1cc(OC2CCC(C)(C)CC2)c(F)cc1CNC(=O)[C@@H]1CCCN1	Ki ([2]; read-out: Ki): 12.8 nM; EC50 [3]: > 10000 nM; EC50 [4]: 440 nM; Activity [5]: 76%; Activity [6]: inactive; Activity [7]: inactive; Activity [8]: inactive; Activity [9]: Dose-dependent effect; Activity [10]: Dose-dependent effect; fraction unbound [11]: 3.6%; Ratio [12]: 0.7; Kp [13]: 10; Kp uu [14]: 0.4; bioavailability [15]: 5.5%; bioavailability [16]: 5.5%; half-life [17]: 1.67 h; half-life [18]: 7.33 h; Ratio Ki [21]: 10000
88	1.8	1670	1	CC1(C)CCC(Oc2cc(F)c(CNC(=O)[C@@H]3CCCN3)cc2F)CC1	Ki ([2]; read-out: Ki): 13.7 nM; EC50 [3]: > 10000 nM; EC50 [4]: 130 nM; Activity [5]: 98%
40	20	1720	73	O=C(NCc1ccc(OCc2ccccc2)cc1)[C@@H]1CCCN1	–
85	1.7	–	4.97	COc1cc(OCC2CCCCC2)c(F)cc1CNC(=O)[C@@H]1CCCN1	Ki [2]: Not Active; EC50 [3]: 4030 nM; EC50 [4]: 500 nM; Ki [20]: Not Active
–	4	3500	–	O=C(NCc1ccc(-c2ccc(Cl)cc2)cc1F)N1CCNCC1	–
46	23	2400	38	O=C(NCc1ccc(Oc2cccc(F)c2)cc1)[C@@H]1CCCN1	–
–	83	–	–	C[C@@H]1CNC[C@H](C)N1C(=O)OCc1ccccc1	–
53	4.4	4120	88	O=C(NCc1ccc(C2CCCCC2)cc1)[C@@H]1CCCN1	–
–	643	–	–	O=C(NCc1ccc(OC(F)(F)F)cc1)C1CCNC1 (centres undefined)	–
46	25	–	44	C[C@H]1CC[C@@H](Oc2c(F)cc(CNC(=O)[C@@H]3CCCN3)cc2F)CC1	Ki [2]: Not Active; EC50 [3]: > 10000 nM; EC50 [4]: 153 nM; Ki [20]: Not Active
–	324	> 10000	–	O=C(NCc1ccc(OC(F)(F)F)cc1)[C@@H]1CCCN1	Ratio Ki [21]: > 1000
–	585	–	–	NCc1cccc(C(=O)NCc2ccc(OC(F)(F)F)cc2)c1	–
65	8	–	183	O=C(NCc1ccc(-c2cc(Cl)cc(Cl)c2)cc1)[C@@H]1CCCN1	–
–	43	> 10000	–	Cc1noc(C)c1COc1cc(F)c(COC(=O)N2[C@H](C)CNC[C@@H]2C)c(F)c1	–
